The supplement of paper PMC10307832

Tests used:
Experiment in all cases: relative viability (nuclei count vs DMSO), 5 days (fraction); higher = more cells survive
Crenolanib + Tozasertib = compound: CC1(COc2ccc3c(c2)ncn3-c2ccc3cccc(N4CCC(N)CC4)c3n2)COC1 [Crenolanib] + Cc1cc(Nc2cc(N3CCN(C)CC3)nc(Sc3ccc(NC(=O)C4CC4)cc3)n2)n[nH]1 [Tozasertib] (partner 0.1 µM)
Method in brief: (§1)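 Relative viability equals treated-well nuclei counts divided by vehicle-well nuclei counts. Counts came from 4× images of lung cancer cell lines grown in 1536-well plates for 5 days after pin-tool dosing on the day after seeding. Dosing used one drug alone or a fixed anchor-drug dose plus five library-drug doses (not always all listed) in √10 steps, and values are medians of duplicate plates.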

Tivantinib + Palbociclib = compound: O=C1NC(=O)[C@@H](c2cn3c4c(cccc24)CCC3)[C@@H]1c1c[nH]c2ccccc12 [Tivantinib] + CC(=O)c1c(C)c2cnc(Nc3ccc(N4CCNCC4)cn3)nc2n(C2CCCC2)c1=O [Palbociclib] (partner 0.5 µM)
Method in brief: as §1

Tivantinib + Navitoclax = compound: O=C1NC(=O)[C@@H](c2cn3c4c(cccc24)CCC3)[C@@H]1c1c[nH]c2ccccc12 [Tivantinib] + CC1(C)CCC(c2ccc(Cl)cc2)=C(CN2CCN(c3ccc(C(=O)NS(=O)(=O)c4ccc(N[C@H](CCN5CCOCC5)CSc5ccccc5)c(S(=O)(=O)C(F)(F)F)c4)cc3)CC2)C1 [Navitoclax] (partner 0.5 µM)
Method in brief: as §1

Tivantinib + Linsitinib = compound: O=C1NC(=O)[C@@H](c2cn3c4c(cccc24)CCC3)[C@@H]1c1c[nH]c2ccccc12 [Tivantinib] + C[C@]1(O)C[C@@H](c2nc(-c3ccc4ccc(-c5ccccc5)nc4c3)c3c(N)nccn32)C1 [Linsitinib] (partner 1 µM)
Method in brief: as §1

Cell Line	relative viability (Crenolanib + Tozasertib; first compound 0.01 µM)	relative viability (Crenolanib + Tozasertib; first compound 0.03162 µM)	relative viability (Crenolanib + Tozasertib; first compound 0.1 µM)	relative viability (Crenolanib + Tozasertib; first compound 0.3162 µM)	relative viability (Crenolanib + Tozasertib; first compound 1 µM)	relative viability (Tivantinib + Palbociclib; first compound 0.01 µM)	relative viability (Tivantinib + Palbociclib; first compound 0.03162 µM)	relative viability (Tivantinib + Palbociclib; first compound 0.1 µM)	relative viability (Tivantinib + Palbociclib; first compound 0.3162 µM)	relative viability (Tivantinib + Navitoclax; first compound 0.01 µM)	relative viability (Tivantinib + Navitoclax; first compound 0.03162 µM)	relative viability (Tivantinib + Navitoclax; first compound 0.1 µM)	relative viability (Tivantinib + Navitoclax; first compound 0.3162 µM)	relative viability (Tivantinib + Linsitinib; first compound 0.01 µM)	relative viability (Tivantinib + Linsitinib; first compound 0.03162 µM)	relative viability (Tivantinib + Linsitinib; first compound 0.1 µM)	relative viability (Tivantinib + Linsitinib; first compound 0.3162 µM)
NCI-H838	0.321	0.287	0.25	0.266	0.251	0.245	0.212	0.188	0.207	1.06	1.13	1.06	1.2	1.01	1.04	0.975	0.984
HARA	0.138	0.131	0.145	0.116	0.121	0.259	0.249	0.246	0.193	1.14	1.13	1.12	1.14	1.05	0.882	0.882	0.303
SK-MES-1	0.899	0.832	0.847	0.912	0.746	0.336	0.345	0.296	0.361	1.24	1.17	1.1	0.896	1.13	1.03	0.98	0.82
LXF-289	0.183	0.222	0.201	0.181	0.176	0.563	0.563	0.545	0.584	0.987	0.949	0.93	0.933	0.982	0.971	0.906	0.927
HOP-62	0.357	0.332	0.43	0.342	0.341	0.454	0.399	0.425	0.466	0.9	0.859	1.07	1.02	1.02	–	1.11	1.15
LK-2	0.164	0.179	0.19	0.177	0.171	0.643	0.472	0.69	0.369	0.913	–	0.705	0.83	0.816	–	0.497	0.355
HCC-44	1.07	0.781	0.89	0.578	0.57	0.946	0.953	0.883	0.945	0.971	0.935	1.06	0.872	0.707	0.589	0.745	0.641
BEN	0.524	0.476	0.474	0.484	0.464	0.446	0.474	0.508	0.447	0.0556	0.0502	0.07	0.0718	0.998	0.725	0.826	0.693
NCI-H2347	0.646	–	–	0.454	0.48	0.399	0.472	0.422	0.381	0.868	0.718	0.678	0.755	0.996	0.843	1.02	1.01
NCI-H1395	0.742	0.759	0.81	0.691	0.659	0.708	0.625	0.632	0.527	1.48	1.17	1.19	1.58	1.1	1.22	0.926	0.857
201T	1.04	1.02	0.856	0.733	0.945	0.368	0.386	0.364	0.348	1.12	1.17	1.17	1.18	1.03	1.03	0.971	0.954
NCI-H520	0.48	0.475	0.514	0.477	0.437	0.263	0.213	0.2	0.203	1.12	1.17	0.995	1.1	1.13	1.11	0.812	0.91
NCI-H727	0.635	0.579	0.721	0.65	0.501	0.619	0.528	0.714	–	0.412	0.432	0.311	–	0.293	0.253	0.243	–
HCC-366	0.167	0.148	0.154	0.144	0.108	0.434	0.362	0.399	0.337	0.951	1.14	1.03	1.07	0.634	0.543	0.542	0.585
LCLC-97TM1	0.268	0.194	0.247	0.202	0.258	0.271	0.257	0.172	0.225	0.423	0.28	0.358	0.398	0.176	0.174	0.174	0.14
NCI-H460	0.621	0.44	0.421	0.056	0.397	0.141	0.138	0.162	0.135	1.06	1.02	0.988	1.13	0.833	0.637	0.746	0.683
H3255	0.672	0.609	0.579	0.671	0.611	0.298	0.303	0.331	–	0.559	0.564	0.508	–	0.95	0.864	0.943	–
